Drawing on ChEMBL document CHEMBL1811888, “Synthesis, biological activity and HPLC validation of 1,2,3,4-tetrahydroacridine derivatives as acetylcholinesterase inhibitors” (Eur J Med Chem, 2011), this text covers IC50 for 3 compounds.

The IC50 is the midpoint of a concentration-inhibition curve.

One assay deals with Acetylcholinesterase (Homo sapiens, UniProt P22303). The experiment in a line: Inhibition of AChE by Ellman's method. (Ellman's reagent forms a yellow product with free thiols.)
The next assay has as its target Cholinesterase (Homo sapiens, UniProt P06276).

Sequence of Acetylcholinesterase (P22303 whole entry): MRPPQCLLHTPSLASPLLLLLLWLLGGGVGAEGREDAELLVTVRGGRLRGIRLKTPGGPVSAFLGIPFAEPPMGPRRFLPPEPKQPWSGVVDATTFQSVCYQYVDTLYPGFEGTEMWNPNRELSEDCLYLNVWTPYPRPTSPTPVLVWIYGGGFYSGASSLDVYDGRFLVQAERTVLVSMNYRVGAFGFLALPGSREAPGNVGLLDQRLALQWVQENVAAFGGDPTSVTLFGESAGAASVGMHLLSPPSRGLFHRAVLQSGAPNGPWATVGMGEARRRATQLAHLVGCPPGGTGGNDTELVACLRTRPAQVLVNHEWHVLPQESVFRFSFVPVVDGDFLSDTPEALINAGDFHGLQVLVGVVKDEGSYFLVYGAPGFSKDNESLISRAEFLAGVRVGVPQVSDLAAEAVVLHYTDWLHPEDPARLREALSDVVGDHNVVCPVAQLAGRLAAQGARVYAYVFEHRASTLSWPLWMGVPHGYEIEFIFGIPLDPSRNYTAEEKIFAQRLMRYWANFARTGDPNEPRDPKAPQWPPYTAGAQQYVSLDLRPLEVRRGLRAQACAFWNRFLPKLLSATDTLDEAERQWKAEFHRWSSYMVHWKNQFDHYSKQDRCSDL
Sequence of Cholinesterase (P06276 whole entry): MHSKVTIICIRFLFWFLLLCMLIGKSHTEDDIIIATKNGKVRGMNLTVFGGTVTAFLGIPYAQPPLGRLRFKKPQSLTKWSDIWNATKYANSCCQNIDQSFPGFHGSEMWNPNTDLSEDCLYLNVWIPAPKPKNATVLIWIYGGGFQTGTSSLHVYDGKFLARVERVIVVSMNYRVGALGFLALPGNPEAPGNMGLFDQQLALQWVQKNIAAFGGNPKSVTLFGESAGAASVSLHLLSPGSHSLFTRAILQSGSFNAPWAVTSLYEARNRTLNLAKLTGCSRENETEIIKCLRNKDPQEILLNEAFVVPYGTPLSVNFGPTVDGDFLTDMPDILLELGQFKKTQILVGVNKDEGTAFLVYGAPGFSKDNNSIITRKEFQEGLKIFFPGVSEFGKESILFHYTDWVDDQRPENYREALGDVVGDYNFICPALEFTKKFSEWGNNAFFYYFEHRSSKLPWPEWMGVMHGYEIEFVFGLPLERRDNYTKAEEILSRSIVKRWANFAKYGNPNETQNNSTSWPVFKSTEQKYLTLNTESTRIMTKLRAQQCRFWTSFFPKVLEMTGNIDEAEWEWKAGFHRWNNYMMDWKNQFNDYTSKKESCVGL

On to `O=C(NCCNc1c2c(nc3ccccc13)CCCC2)c1ccc(F)cc1`, for which the half-maximal inhibitory concentration (IC50) against Acetylcholinesterase amounted to 0.815 nM; against Cholinesterase, 0.0449 nM.

On to `O=C(NCCCNc1c2c(nc3ccccc13)CCCC2)c1ccc(F)cc1`, for which the IC50 turned out to be 0.809 nM against Acetylcholinesterase and 0.0212 nM against Cholinesterase.

For the compound `O=C(NCCCCNc1c2c(nc3ccccc13)CCCC2)c1ccc(F)cc1`, the results for the IC50 at Acetylcholinesterase and against Cholinesterase were 0.784 nM and 0.0354 nM, respectively.
